Some test systems named below: UACC-257 melanoma; OVCAR-5 ovarian; HCC-2998 colon; UACC-62 melanoma; SF-295 CNS; IGROV1 ovarian; MDA-MB-435; RXF 393 renal; RPMI-8226 leukemia; HL-60(TB) leukemia.
Common to all, as to test: NCI anticancer screen, dose series, 48 h

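Where inhibition never reached the appropriate level, the endpoint shown equals the highest concentration tested. Otherwise, values were interpolated linearly from a five-concentration, 48-hour dose response in 96-well plates. Abbreviation: GI50, concentration required for 50% inhibition of growth. TGI: concentration producing complete growth inhibition.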

In the case of `O=C(NO)[C@@H](Cc1ccccc1)NS(=O)(=O)c1ccc(-c2ccccc2)cc1`, the GI50 with UACC-257 melanoma was more than 25 µM; in the experiment on OVCAR-5 ovarian it was 7.13 µM; with HCC-2998 colon, more than 25 µM; in the experiment with UACC-62 melanoma, more than 25 µM; with SF-295 CNS, more than 25 µM; in the experiment on IGROV1 ovarian it was 8.52 µM. Moreover, in the experiment on MDA-MB-435, the GI50 was 13.4 µM. Moreover, the TGI with UACC-257 melanoma, with OVCAR-5 ovarian, in the experiment on HCC-2998 colon, in the experiment on UACC-62 melanoma, in the experiment on SF-295 CNS and in the experiment on IGROV1 ovarian was more than 25 µM in each case. Besides, in the experiment on MDA-MB-435, the TGI is more than 25 µM.

For `O=C(Nc1cccc(-c2ccc(Cl)c(C(F)(F)F)c2)c1)C1CCN(Cc2cccc3cccnc23)CC1`, the GI50 in the experiment with RXF 393 renal is 1.27 µM; in the experiment on UACC-257 melanoma it was 1.83 µM; in the experiment on OVCAR-5 ovarian, 1.57 µM; in the experiment with HCC-2998 colon, 1.43 µM; in the experiment with UACC-62 melanoma, 1.69 µM; with RPMI-8226 leukemia, 2.07 µM. Also, the GI50 in the experiment on SF-295 CNS was 1.73 µM; in the experiment on IGROV1 ovarian, 1.55 µM; with MDA-MB-435, 1.71 µM. Further, the TGI with RXF 393 renal is 2.61 µM; in the experiment on UACC-257 melanoma it was 3.62 µM; with OVCAR-5 ovarian, 2.92 µM; in the experiment with HCC-2998 colon it was 2.85 µM; in the experiment with UACC-62 melanoma, 3.09 µM; with RPMI-8226 leukemia it was 5.4 µM. The TGI was found to be 3.22 µM in the experiment with SF-295 CNS, 2.99 µM in the experiment with IGROV1 ovarian and 3.1 µM in the experiment with MDA-MB-435.

In the case of `CCOC(=O)C1=C(C)N(Cc2ccc(Cl)cc2Cl)C2(O)C=CC(=O)C3=C(O)c4ccccc4C(=O)C312` (stereo not given), the GI50 with RXF 393 renal is 11.1 µM; in the experiment with UACC-257 melanoma it was 10.9 µM; with OVCAR-5 ovarian, 9.59 µM; in the experiment on HCC-2998 colon it was 11.2 µM; with UACC-62 melanoma, 4.72 µM; with RPMI-8226 leukemia it was 3.29 µM. Besides, the GI50 in the experiment with SF-295 CNS is 3.07 µM; in the experiment on IGROV1 ovarian, 8.62 µM; in the experiment on MDA-MB-435, 3.87 µM. Further, the TGI with RXF 393 renal is 66.5 µM; in the experiment with UACC-257 melanoma, 61.2 µM; in the experiment with OVCAR-5 ovarian, 30.1 µM; with HCC-2998 colon, 28.2 µM; in the experiment on UACC-62 melanoma, 18.9 µM; in the experiment on RPMI-8226 leukemia, 13 µM. For the same compound, the TGI in the experiment with SF-295 CNS was 14.9 µM; in the experiment with IGROV1 ovarian, more than 100 µM; in the experiment with MDA-MB-435, 13.4 µM.

Take `CC1(N)CCN(c2cnc(-c3cccc(Cl)c3Cl)c(N)n2)CC1`: the GI50 in the experiment with UACC-257 melanoma was 17 µM; in the experiment with OVCAR-5 ovarian, 27.7 µM; in the experiment with HL-60(TB) leukemia, 41.9 µM; in the experiment with HCC-2998 colon, 22 µM; in the experiment on UACC-62 melanoma it was 19.1 µM; with RPMI-8226 leukemia, 13.8 µM. Further, the GI50 with SF-295 CNS is 11.1 µM; in the experiment on IGROV1 ovarian, 6.48 µM; in the experiment on MDA-MB-435, 28.3 µM. Besides, the TGI with UACC-257 melanoma is 35.2 µM; in the experiment with OVCAR-5 ovarian it was more than 100 µM; with HL-60(TB) leukemia, more than 100 µM; in the experiment with HCC-2998 colon, 77.6 µM; in the experiment with UACC-62 melanoma it was 39.9 µM; in the experiment with RPMI-8226 leukemia, 40.1 µM. For the same compound, the TGI was 27.2 µM in the experiment with SF-295 CNS, more than 100 µM in the experiment on IGROV1 ovarian and more than 100 µM in the experiment on MDA-MB-435.

Consider `CC(C(N)C(=O)NC(C(=O)O)C1OC(n2ccc(=O)[nH]c2=O)C(O)C1O)C(O)c1ccc(O)cn1` (stereo not given), for which the TGI in the experiment on UACC-257 melanoma, in the experiment with OVCAR-5 ovarian, in the experiment with HL-60(TB) leukemia, in the experiment on HCC-2998 colon, in the experiment with UACC-62 melanoma and in the experiment with RPMI-8226 leukemia was more than 100 µM in each case. Further, the TGI with SF-295 CNS, with IGROV1 ovarian and in the experiment on MDA-MB-435 was more than 100 µM each time.

Turning to `CCN(CC)C(=S)SCN1C(=O)c2ccccc2S1(=O)=O`, the GI50 in the experiment on RXF 393 renal is more than 51.3 µM; with UACC-257 melanoma, 56.3 µM; with OVCAR-5 ovarian, more than 68.4 µM; in the experiment with HCC-2998 colon, 40.8 µM; in the experiment on UACC-62 melanoma, 3.02 µM; in the experiment on RPMI-8226 leukemia, less than 0.01 µM. In addition, the GI50 was more than 67.2 µM in the experiment on SF-295 CNS, 55.2 µM in the experiment on IGROV1 ovarian and 60.9 µM in the experiment with MDA-MB-435. Further, the TGI in the experiment on RXF 393 renal was more than 80.1 µM; with UACC-257 melanoma it was more than 100 µM; in the experiment on OVCAR-5 ovarian it was more than 100 µM; in the experiment with HCC-2998 colon, more than 78 µM; in the experiment on SF-295 CNS, more than 100 µM; with IGROV1 ovarian, more than 100 µM. The same compound came in with a TGI with MDA-MB-435 of more than 100 µM.

For `Nc1ccc(-c2cccs2)cc1NC(=O)c1ccc(CCCC(=O)Nc2ccc(C3CC3N)cc2)cc1` (stereo not given), the GI50 with RXF 393 renal is 2.45 µM; in the experiment on HL-60(TB) leukemia, 2.54 µM; in the experiment on UACC-62 melanoma it was 1.28 µM; in the experiment with IGROV1 ovarian, 4.8 µM; with MDA-MB-435, 1.74 µM. Moreover, the TGI with RXF 393 renal is 30 µM; in the experiment on HL-60(TB) leukemia, more than 100 µM; in the experiment with UACC-62 melanoma, 5.47 µM; with IGROV1 ovarian, more than 100 µM; in the experiment with MDA-MB-435, 4 µM.

As for `NS(=O)(=O)NCCNc1nonc1C(=Nc1ccc(F)c(Br)c1)NO`, the GI50 with OVCAR-5 ovarian was 69.4 µM; with HL-60(TB) leukemia, 36.9 µM; in the experiment on HCC-2998 colon, 27.4 µM; in the experiment on UACC-62 melanoma, 25.9 µM; with RPMI-8226 leukemia, 37.9 µM; in the experiment with SF-295 CNS it was 27 µM. Also, the GI50 is 52.3 µM in the experiment with IGROV1 ovarian and 32 µM in the experiment with MDA-MB-435. Moreover, the TGI is more than 100 µM with OVCAR-5 ovarian; more than 100 µM in the experiment on HL-60(TB) leukemia; 77.5 µM with HCC-2998 colon; more than 100 µM in the experiment on UACC-62 melanoma; more than 100 µM with RPMI-8226 leukemia; more than 100 µM in the experiment with SF-295 CNS. For the same compound, the TGI in the experiment on IGROV1 ovarian and in the experiment with MDA-MB-435 was more than 100 µM in each case.

For the compound `O=C(N/N=C1\C(=O)N(c2nccs2)C(=O)C(=O)C1c1nc2ccccc2s1)c1ccccc1O` (stereo not given), the TGI with RXF 393 renal, in the experiment on UACC-257 melanoma, in the experiment with OVCAR-5 ovarian, with HL-60(TB) leukemia, in the experiment on HCC-2998 colon and in the experiment with UACC-62 melanoma was more than 100 µM throughout. Besides, the TGI in the experiment with RPMI-8226 leukemia, in the experiment with SF-295 CNS and in the experiment on IGROV1 ovarian was more than 100 µM each time.

As for `CC(=O)c1c(CO[N+](=O)[O-])n([O-])c2ccccc2[n+]1=O`, the TGI with UACC-257 melanoma, with OVCAR-5 ovarian, in the experiment with UACC-62 melanoma, with RPMI-8226 leukemia, in the experiment with SF-295 CNS and with IGROV1 ovarian was more than 100 µM each time. In the experiment with MDA-MB-435, this compound had a TGI of more than 100 µM.

The record behind these values is PubChem BioAssay (NCI).
